Patent US4921865A, “Aminoacylates of glycerol acetal” (Societe de Conseils de Recherches et d'Applications …, priority 1987, dated 1990)

Tests used:
[1] = test system: platelets (PAF induced platelet aggregation); assay: inhibition of PAF-induced platelet aggregation in platelet rich plasma; assay type: cell-based, New Zealand rabbits; settings: Oryctolagus cuniculus; rabbit platelet rich plasma, 2.5 nM PAF
Experimental: 1--INHIBITION OF THE PLATELETS AGGREGATION ON NEW ZEALAND RABBITS
The experimentation was conducted on platelets with plasma of New Zealand rabbits.
Blood samples were taken from auricular artery and placed in a citrate buffer (3.8 %; pH 7.4); blood was further centrifugated for 15 mn at 1200 RPM.
The tested sample was prepared in DMSO, then poured on platelets rich plasma for 1 mn, then a dose of 2.5 nM of PAF was added.
The determination is made on a Cronolog Coultronics apparatus which determines the transmission percentage corresponding to the maximum height of the peak before the desaggregation.
The percentage of variation of the inhibition with respect to the transmission percentage is calculated (control: pure DMSO).
This method was described in details in LABORATORY INVESTIGATIONS, Vol. 41, No. 3, p. 275, 1979, JEAN-PIERRE CAZENAVE, Dr. MED. , JACQUES BENVENISTE, Dr. MED., AND J. FRASER MUSTARD, M.D., "Aggregation of Rabbits Platelets by Platelet-Activating Factor Is Independent of the Release Reaction and the Arachidonate Pathway and Inhibited by Membrane-Active Drugs".
Five tests made on 5 different rabbits allowed us to calculate the IC50 of the various compounds using the linear regression test.

[2] = test system: PAF-induced leukopenia; assay: PAF-induced leukopenia in the guinea pig; assay type: in vivo; settings: for Percentage Variation (leukopenia): vs control
Experimental: (§1) Male Guinea-pig (400-500 g) were anesthetized with urethane (1.5 g/kg: IP) prior to be tracheotomized and ventilated with a respiratory pump (UGO BASILE) (70-80 breath/minute, 1 ml air/100 g/breath) to abolish spontaneous respiration a pneumothorax was performed. The resistance to inflation was measured with a pressure transducer (UGO BASILE) against an initial pressure of 10 cm H2 O according to Konzett and Rossler. Animals were allocated into groups and were treated or not by the compounds of the invention (0.05, 0.1, 0.5, 1 and 5 mg/kg).The products were given IV 1 hour before challenge with PAF.
(§2) The animals were challenged with various doses of PAF ([…]) given intravenously, and the variations in the resistance to inflation were recorded.
(§3) Blood samples were collected prior to and 1,5 and 10 minutes following to PAF-challenge. Forty μl of blood were diluted in 10 ml isoton (Coultronics, France); erythrocytes were lysed with Zapoglobin (France) prior leukocytes were counted in a coulter counter. To determine platelet number, 40 μl of blood were diluted in 2 ml isoton and centrifuged at 100 runs per minute for 30 secondes, 100 μl of the supernatant were collected and further diluted in 10 ml isoton prior counting in a coulter counter.

[3] = test system: PAF-induced thrombocytopenia; assay: PAF-induced thrombocytopenia in the guinea pig; assay type: in vivo; settings: for Percentage Variation (thrombocytopenia): vs control; for Percentage Decrease in leukocyte number: thrombocytopenia
Experimental: as §1, §2, §3

[4] = test system: polymorphonuclear leukocytes (PMNs); assay: antagonism of polymorphonuclear leukocyte aggregation induced by PAF; assay type: cell-based, rat (Wistar); settings: rat PMNs, PAF 10^-8
Experimental: Polymorphonuclear leukocytes (PMNs) were obtained as described by A. W. Ford-Hutchinson et al. (Br - J. Pharmacol. 76, 367-371, 1982). Cell suspensions ([…]) were prepared from peritoneal exudates obtained after a 5 ml IP injection of sodium caseinate 12% (w/v) to male Wistar rats, 300 g body weight.
After centrifugation, cells were washed with Hanks and resuspended in MEM/Hepes 30 mM medium (PM=7.4) at a concentration of 10^7 cells/ml. Cytochalasin B (5 μg/ml) was added 10 minutes before trigering aggregation to amplify the PMNs aggregation. The light transmittance through the cell suspension (400 μl) was measured under a 900 R/mn magnetic stirring, with a dual beam aggregometer (Chronolog Corp. Coultronics.)
The control cuvet is the cell suspension diluted to 20% of the cell count with MEM and the difference represents 100% transmittance. Change in transmittance, which occurs when PAF is added, was continuously recorded.
Drugs solubilized in MEM/Hepes were added (4 μl) to PMNs suspension 2 minutes before PAF addition.

[5] = test system: PAF-induced [Ca^2+ ]i mobilization, washed rabbits platelets; assay: inhibition of intracytosolic free calcium mobilization induced by PAF in washed rabbit platelets; assay type: cell-based; settings: PAF 2×10^-9 M
Experimental: Blood was taken from the auricular artery of the rabbit on citric acid/sodium citrate/dextrose and anticoagulan and the washed platelets were prepared according to Ardlie et al., Brit. J. Pharmacology, 19, 7-17, 1970. They were incubated with acetylsalicylic salt (100 μM, 30 minutes) to avoid thromboxane induced aggregation. They were then loaded with the fluorescent calcium indicator dye quin 2 by incubation with quin 2 aceto-methylester (15 μM in DMSO, 20 minutes at room temperature) which penetrates the cell membrane and after hydrolysed is trapped in the platelet. Drugs were preincubated with platelets for 15 minutes simultaneously to CP/CPK mixture which destroys secreted ADP.
Fluorescent measurement was then performed (excitation λ=339 nm, emission λ=494 nm) after PAF addition to platelet suspension. The fluorescence intensity is proportional to the cytosolic free calcium level [Ca^2+ ]i which can be quantified as described by Tsien et al., J. Cell Biol., 94, 325-334, 1982.

IC50 [1]: 0.404 µM | IC50 ([4]; Leukocyte): 0.5 µM
SMILES: CCCCCCCCCCCCCCCCCC1(C)OCC(COC(=O)CCCCC[n+]2ccccc2)O1 (centres unmarked) [Example 9, 2-heptadecyl 2-methyl 4-[6'-(N-pyridinium)hexanoyloxymethyl] 1,3 dioxolan bromide]
Percentage Decrease of leukocyte number ([2]; 0.05 mg/kg IV, 1 mn): 45.3 +/- 5.70% | Percentage Variation (leukopenia) ([2]; 0.05 mg/kg IV, 1 mn): +11.0% | Percentage Decrease of leukocyte number ([2]; 0.05 mg/kg IV, 5 mn): 21.6 +/- 3.42% | Percentage Variation (leukopenia) ([2]; 0.05 mg/kg IV, 5 mn): -26.0% | Percentage Decrease of leukocyte number ([2]; 0.05 mg/kg IV, 10 mn): 14.2 +/- 17.30% | Percentage Variation (leukopenia) ([2]; 0.05 mg/kg IV, 10 mn): -57.6% | Percentage Decrease of leukocyte number ([2]; 0.1 mg/kg IV, 1 mn): 41.8 +/- 6.50% | Percentage Variation (leukopenia) ([2]; 0.1 mg/kg IV, 1 mn): +2.5% | Percentage Decrease of leukocyte number ([2]; 0.1 mg/kg IV, 5 mn): 31.9 +/- 4.88% | Percentage Variation (leukopenia) ([2]; 0.1 mg/kg IV, 5 mn): -9.2% | Percentage Decrease of leukocyte number ([2]; 0.1 mg/kg IV, 10 mn): 33.5 +/- 4.65% | Percentage Variation (leukopenia) ([2]; 0.1 mg/kg IV, 10 mn): 0.0% | Percentage Decrease of leukocyte number ([2]; 0.5 mg/kg IV, 1 mn): 34.6 +/- 6.35% | Percentage Variation (leukopenia) ([2]; 0.5 mg/kg IV, 1 mn): -15.2% | Percentage Decrease of leukocyte number ([2]; 0.5 mg/kg IV, 5 mn): 19.0 +/- 6.42% | Percentage Variation (leukopenia) ([2]; 0.5 mg/kg IV, 5 mn): -34.9% | Percentage Decrease of leukocyte number ([2]; 0.5 mg/kg IV, 10 mn): 14.6 +/- 5.36% | Percentage Decrease of leukocyte number ([2]; 1 mg/kg IV, 1 mn): 3.5 +/- 12.60% | Percentage Variation (leukopenia) ([2]; 1 mg/kg IV, 1 mn): -91.4% | Percentage Decrease of leukocyte number ([2]; 1 mg/kg IV, 5 mn): 2.9 +/- 10.51% | Percentage Variation (leukopenia) ([2]; 1 mg/kg IV, 5 mn): -90.1% | Percentage Decrease of leukocyte number ([2]; 1 mg/kg IV, 10 mn): 1.0 +/- 22.62% | Percentage Variation (leukopenia) ([2]; 1 mg/kg IV, 10 mn): -97.0% | Percentage Decrease of leukocyte number ([2]; 5 mg/kg IV, 1 mn): 16.5 +/- 2.42% | Percentage Variation (leukopenia) ([2]; 5 mg/kg IV, 1 mn): -59.6% | Percentage Decrease of leukocyte number ([2]; 5 mg/kg IV, 5 mn): 15.9 +/- 0.99% | Percentage Variation (leukopenia) ([2]; 5 mg/kg IV, 5 mn): -45.5% | Percentage Decrease of leukocyte number ([2]; 5 mg/kg IV, 10 mn): 18.7 +/- 5.08% | Percentage Variation (leukopenia) ([2]; 5 mg/kg IV, 10 mn): -44.2% | Percentage Variation (thrombocytopenia) ([3]; 0.05 mg/kg IV, 1 mn): -34.1% | Percentage Variation (thrombocytopenia) ([3]; 0.05 mg/kg IV, 5 mn): +1.4% | Percentage Variation (thrombocytopenia) ([3]; 0.05 mg/kg IV, 10 mn): -15.1% | Percentage Variation (thrombocytopenia) ([3]; 0.1 mg/kg IV, 1 mn): -56.1% | Percentage Variation (thrombocytopenia) ([3]; 0.1 mg/kg IV, 5 mn): -18.2% | Percentage Variation (thrombocytopenia) ([3]; 0.1 mg/kg IV, 10 mn): -0.5% | Percentage Variation (thrombocytopenia) ([3]; 0.5 mg/kg IV, 1 mn): -71.9% | Percentage Variation (thrombocytopenia) ([3]; 0.5 mg/kg IV, 5 mn): -77.4% | Percentage Variation (thrombocytopenia) ([3]; 0.5 mg/kg IV, 10 mn): -74.4% | Percentage Variation (thrombocytopenia) ([3]; 1 mg/kg IV, 1 mn): -83.2% | Percentage Variation (thrombocytopenia) ([3]; 1 mg/kg IV, 5 mn): -46.9% | Percentage Variation (thrombocytopenia) ([3]; 1 mg/kg IV, 10 mn): -50.6% | Percentage Variation (thrombocytopenia) ([3]; 5 mg/kg IV, 1 mn): -93.9% | Percentage Variation (thrombocytopenia) ([3]; 5 mg/kg IV, 5 mn): -86.8% | Percentage Variation (thrombocytopenia) ([3]; 5 mg/kg IV, 10 mn): -97.4% | inhibition of PAF-induced thrombocytopenia (in words) ([3]; pyridinium compound 0.5, 1 and 5 mg/kg IV, quinolinium compound 0.5 and 1 mg/kg IV): inhibit | Percentage Decrease in leukocyte number ([3]; 0.05 mg/kg IV, 1 mn): 45.2 +/- 1.20% | Percentage Decrease in leukocyte number ([3]; 0.05 mg/kg IV, 5 mn): 43.0 +/- 4.80% | Percentage Decrease in leukocyte number ([3]; 0.05 mg/kg IV, 10 mn): 36.1 +/- 2.41% | Percentage Decrease in leukocyte number ([3]; 0.1 mg/kg IV, 1 mn): 30.1 +/- 13.72% | Percentage Decrease in leukocyte number ([3]; 0.1 mg/kg IV, 5 mn): 34.7 +/- 3.60% | Percentage Decrease in leukocyte number ([3]; 0.1 mg/kg IV, 10 mn): 42.3 +/- 4.79% | Percentage Decrease in leukocyte number ([3]; 0.5 mg/kg IV, 1 mn): 19.3 +/- 10.19% | Percentage Decrease in leukocyte number ([3]; 0.5 mg/kg IV, 5 mn): 9.6 +/- 12.15% | Percentage Decrease in leukocyte number ([3]; 0.5 mg/kg IV, 10 mn): 10.9 +/- 9.94% | Percentage Decrease in leukocyte number ([3]; 1 mg/kg IV, 1 mn): 11.5 +/- 6.21% | Percentage Decrease in leukocyte number ([3]; 1 mg/kg IV, 5 mn): 22.5 +/- 3.27% | Percentage Decrease in leukocyte number ([3]; 1 mg/kg IV, 10 mn): 21.0 +/- 3.87% | Percentage Decrease in leukocyte number ([3]; 5 mg/kg IV, 1 mn): 4.2 +/- 2.35% | Percentage Decrease in leukocyte number ([3]; 5 mg/kg IV, 5 mn): 5.6 +/- 1.84% | Percentage Decrease in leukocyte number ([3]; 5 mg/kg IV, 10 mn): 1.1 +/- 1.15% | inhibition of PMN aggregation (in words) [4]: dose-dependently inhibit | inhibition of PAF-induced [Ca^2+ ]i mobilization (in words) ([5]; 5×10^-7 M): totally inhibit | inhibition at 0.05 µM ([5]; Oryctolagus cuniculus, Platelet, 5×10^-8 M, read-out: inhibition of PAF effect on [Ca^2+ ]i): 44%
